Assays:
[1] = system: antibodies in sera from SARS patients (sera 1a, 1b, 2, 6, 37, 62, London, SARS-yellow, SARS-green); type: binding, human
[2] = system: rabbit serum obtained by immunizing a rabbit with the SARS-CoV strain Frankfurt 1; type: binding; parameters: Binding of a rabbit serum to linear peptides / Binding of a rabbit serum to looped peptides / Rabbit serum linear peptides / Rabbit serum looped peptides / Binding of a rabbit serum to linear peptides of protein N of SARS-CoV Urbani (Rabbit serum linear peptides) / Binding of a rabbit serum to looped/cyclic peptides of protein N of SARS-CoV Urbani (Rabbit serum looped peptides): unit not given here
[3] = system: control sera (pooled serum of ten healthy LUMC hospital workers; commercial negative donor pooled serum from the Dutch bloodbank); type: binding, human

VFLLVTLAILTALRL
0.3: Binding of serum London to looped/cyclic peptides of protein E of SARS-CoV Urbani [1] | Binding of a rabbit serum to looped peptides [2] | Binding of Control serum LUMC to linear peptides [3]
0.0: Binding of serum SARS-yellow to linear peptides of protein E of SARS-CoV Urbani [1]
0.5: Binding of serum 6 to linear peptides of protein E of SARS-CoV Urbani [1] | Binding of serum 62 to looped/cyclic peptides of protein E of SARS-CoV Urbani [1] | Binding of serum London to linear peptides of protein E of SARS-CoV Urbani [1] | Binding of serum SARS-yellow to looped/cyclic peptides of protein E of SARS-CoV Urbani [1] | Binding of Control serum Blood-bank to linear peptides [3] | Binding of Control serum LUMC to looped peptides [3]
0.4: Binding of serum 1a to looped/cyclic peptides of protein E of SARS-CoV Urbani [1] | Binding of serum 1b to linear peptides of protein E of SARS-CoV Urbani [1] | Binding of serum 2 to linear peptides of protein E of SARS-CoV Urbani [1] | Binding of serum 2 to looped/cyclic peptides of protein E of SARS-CoV Urbani [1] | Binding of serum 37 to looped/cyclic peptides of protein E of SARS-CoV Urbani [1] | Binding of serum SARS-green to linear peptides of protein E of SARS-CoV Urbani [1] | Binding of a rabbit serum to linear peptides [2] | Binding of Control Serum Blood-Bank to Looped peptides [3]
0.6: Binding of serum 37 to linear peptides of protein E of SARS-CoV Urbani [1] | Binding of serum 62 to linear peptides of protein E of SARS-CoV Urbani [1]
0.2: Binding of serum 1b to looped/cyclic peptides of protein E of SARS-CoV Urbani [1] | Binding of serum 6 to looped/cyclic peptides of protein E of SARS-CoV Urbani [1] | Binding of serum SARS-green to looped/cyclic peptides of protein E of SARS-CoV Urbani [1]
0.7: Binding of serum 1a to linear peptides of protein E of SARS-CoV Urbani [1]

VLLFLAFVVFLLVTL
0.3: Binding of serum SARS-green to looped/cyclic peptides of protein E of SARS-CoV Urbani [1] | Binding of serum SARS-yellow to linear peptides of protein E of SARS-CoV Urbani [1]
0.7: Binding of Control serum LUMC to looped peptides [3]
0.9: Binding of serum 1b to linear peptides of protein E of SARS-CoV Urbani [1] | Binding of serum 6 to linear peptides of protein E of SARS-CoV Urbani [1]
0.8: Binding of serum 1a to linear peptides of protein E of SARS-CoV Urbani [1] | Binding of serum 2 to linear peptides of protein E of SARS-CoV Urbani [1] | Binding of serum 37 to linear peptides of protein E of SARS-CoV Urbani [1] | Binding of serum 62 to linear peptides of protein E of SARS-CoV Urbani [1] | Binding of serum 62 to looped/cyclic peptides of protein E of SARS-CoV Urbani [1] | Binding of Control serum Blood-bank to linear peptides [3]
0.5: Binding of serum 1b to looped/cyclic peptides of protein E of SARS-CoV Urbani [1] | Binding of serum 2 to looped/cyclic peptides of protein E of SARS-CoV Urbani [1] | Binding of serum SARS-green to linear peptides of protein E of SARS-CoV Urbani [1] | Binding of a rabbit serum to linear peptides [2] | Binding of a rabbit serum to looped peptides [2] | Binding of Control Serum Blood-Bank to Looped peptides [3] | Binding of Control serum LUMC to linear peptides [3]
0.6: Binding of serum 1a to looped/cyclic peptides of protein E of SARS-CoV Urbani [1] | Binding of serum 37 to looped/cyclic peptides of protein E of SARS-CoV Urbani [1] | Binding of serum London to linear peptides of protein E of SARS-CoV Urbani [1] | Binding of serum SARS-yellow to looped/cyclic peptides of protein E of SARS-CoV Urbani [1]
0.4: Binding of serum 6 to looped/cyclic peptides of protein E of SARS-CoV Urbani [1] | Binding of serum London to looped/cyclic peptides of protein E of SARS-CoV Urbani [1]

VSEETGTLIVNSVLL
0.9: Binding of serum 62 to looped/cyclic peptides of protein E of SARS-CoV Urbani [1] | Binding of Control Serum Blood-Bank to Looped peptides [3]
0.4: Binding of serum 6 to linear peptides of protein E of SARS-CoV Urbani [1] | Binding of serum SARS-green to linear peptides of protein E of SARS-CoV Urbani [1] | Binding of a rabbit serum to linear peptides [2]
0.7: Binding of serum 1a to looped/cyclic peptides of protein E of SARS-CoV Urbani [1] | Binding of serum 37 to looped/cyclic peptides of protein E of SARS-CoV Urbani [1] | Binding of serum 62 to linear peptides of protein E of SARS-CoV Urbani [1] | Binding of serum SARS-yellow to looped/cyclic peptides of protein E of SARS-CoV Urbani [1] | Binding of Control serum LUMC to looped peptides [3]
0.1: Binding of serum SARS-yellow to linear peptides of protein E of SARS-CoV Urbani [1] | Binding of a rabbit serum to looped peptides [2]
0.8: Binding of serum 1a to linear peptides of protein E of SARS-CoV Urbani [1] | Binding of Control serum Blood-bank to linear peptides [3]
0.6: Binding of serum 1b to looped/cyclic peptides of protein E of SARS-CoV Urbani [1] | Binding of serum 2 to looped/cyclic peptides of protein E of SARS-CoV Urbani [1] | Binding of serum SARS-green to looped/cyclic peptides of protein E of SARS-CoV Urbani [1]
0.5: Binding of serum 1b to linear peptides of protein E of SARS-CoV Urbani [1] | Binding of serum 6 to looped/cyclic peptides of protein E of SARS-CoV Urbani [1] | Binding of serum 37 to linear peptides of protein E of SARS-CoV Urbani [1] | Binding of serum London to linear peptides of protein E of SARS-CoV Urbani [1] | Binding of serum London to looped/cyclic peptides of protein E of SARS-CoV Urbani [1] | Binding of Control serum LUMC to linear peptides [3]
0.3: Binding of serum 2 to linear peptides of protein E of SARS-CoV Urbani [1]

YSFVSEETGTLIVNS
1.0: Binding of Control serum LUMC to linear peptides [3]
0.4: Binding of serum 6 to looped/cyclic peptides of protein E of SARS-CoV Urbani [1] | Binding of serum London to looped/cyclic peptides of protein E of SARS-CoV Urbani [1] | Binding of serum SARS-green to looped/cyclic peptides of protein E of SARS-CoV Urbani [1] | Binding of a rabbit serum to looped peptides [2]
0.5: Binding of serum 1b to looped/cyclic peptides of protein E of SARS-CoV Urbani [1] | Binding of serum 2 to linear peptides of protein E of SARS-CoV Urbani [1] | Binding of serum 6 to linear peptides of protein E of SARS-CoV Urbani [1] | Binding of serum 62 to linear peptides of protein E of SARS-CoV Urbani [1]
0.2: Binding of a rabbit serum to linear peptides [2]
0.8: Binding of serum 1a to linear peptides of protein E of SARS-CoV Urbani [1] | Binding of serum 37 to looped/cyclic peptides of protein E of SARS-CoV Urbani [1] | Binding of serum 62 to looped/cyclic peptides of protein E of SARS-CoV Urbani [1] | Binding of Control serum LUMC to looped peptides [3]
0.6: Binding of serum 37 to linear peptides of protein E of SARS-CoV Urbani [1] | Binding of serum SARS-yellow to linear peptides of protein E of SARS-CoV Urbani [1] | Binding of Control Serum Blood-Bank to Looped peptides [3]
0.7: Binding of serum 1a to looped/cyclic peptides of protein E of SARS-CoV Urbani [1] | Binding of serum 1b to linear peptides of protein E of SARS-CoV Urbani [1] | Binding of serum 2 to looped/cyclic peptides of protein E of SARS-CoV Urbani [1] | Binding of serum London to linear peptides of protein E of SARS-CoV Urbani [1] | Binding of serum SARS-green to linear peptides of protein E of SARS-CoV Urbani [1] | Binding of serum SARS-yellow to looped/cyclic peptides of protein E of SARS-CoV Urbani [1] | Binding of Control serum Blood-bank to linear peptides [3]
